Test systems include MCF7 breast; COLO 205 colon; MOLT-4 leukemia; LOX IMVI melanoma; SNB-19 CNS; SN12C renal; NCI/ADR-RES ovarian; HS 578T breast; TK-10 renal; CAKI-1 renal.
Common to all, as to assay: DTP human tumour cell line panel, 48 h

The values that follow come from PubChem BioAssay (NCI).

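Protocol summary: plate cells (96-well), add compound at 5 concentrations, incubate 48 h, interpolate endpoints linearly. Here, GI50 denotes the concentration required for 50% inhibition of growth. TGI is the concentration that stops growth completely.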 Bounds are passed on as bounds.

For `O=C1/C(=C/c2ccc(Cl)c(Cl)c2)CN(C(=O)C(Cl)Cl)C/C1=C\c1ccc(Cl)c(Cl)c1`, the GI50 with MCF7 breast is 0.037 µM; in the test on COLO 205 colon it was 0.178 µM; in the test on MOLT-4 leukemia, 0.0985 µM; in the test on LOX IMVI melanoma, 0.0362 µM; with SNB-19 CNS, 0.11 µM; with SN12C renal, 0.139 µM. For the same compound, the GI50 with NCI/ADR-RES ovarian was 0.107 µM; in the test on HS 578T breast, 0.355 µM; in the test with TK-10 renal it was 0.353 µM; in the test on CAKI-1 renal, 0.244 µM. Also, the TGI is 1.37 µM with MCF7 breast; 0.638 µM with COLO 205 colon; more than 100 µM in the test with MOLT-4 leukemia; 0.136 µM in the test with LOX IMVI melanoma; 0.306 µM with SNB-19 CNS; 0.461 µM with SN12C renal. Besides, the concentration for total growth inhibition (TGI) was more than 100 µM in the test with NCI/ADR-RES ovarian, 3.79 µM in the test on HS 578T breast, 1.23 µM with TK-10 renal and 0.826 µM in the test on CAKI-1 renal.

For the compound `COc1cc(/C=C2\C(=O)N(Cc3ccc(Cl)cc3)c3ccccc32)cc(OC)c1OC`, the GI50 in the test with MCF7 breast is 2.97 µM; in the test on COLO 205 colon, 3.15 µM; in the test with MOLT-4 leukemia, 2.2 µM; in the test on LOX IMVI melanoma, 1.59 µM; in the test on SNB-19 CNS, 4.78 µM; with SN12C renal, 2.59 µM. The GI50 is 2.85 µM in the test on NCI/ADR-RES ovarian, 1.65 µM with HS 578T breast, 3.09 µM in the test with TK-10 renal and 2.92 µM in the test with CAKI-1 renal. The TGI in the test on MCF7 breast is more than 61.7 µM; in the test with COLO 205 colon it was 8.52 µM; in the test with MOLT-4 leukemia, 5.97 µM; in the test on LOX IMVI melanoma, 3 µM; in the test with SNB-19 CNS, 18 µM; in the test on SN12C renal, 8.99 µM. Further, the TGI in the test on NCI/ADR-RES ovarian came to 9.96 µM; in the test on HS 578T breast it was 11.1 µM; in the test with TK-10 renal it was 30.1 µM; in the test on CAKI-1 renal it was 13.8 µM.

`CN(C)c1ccc(/C=C\c2ccnc3ccccc23)cc1`: the GI50 in the test with MCF7 breast was 0.328 µM; with COLO 205 colon, 4.75 µM; in the test on MOLT-4 leukemia, 14.5 µM; with LOX IMVI melanoma, 9.82 µM; with SNB-19 CNS, 10.6 µM; in the test with SN12C renal, 8.81 µM. The GI50 with NCI/ADR-RES ovarian was 2.93 µM; with HS 578T breast, 13 µM; in the test with TK-10 renal it was 14.7 µM; in the test on CAKI-1 renal, 10.2 µM. The TGI is 10.9 µM in the test on MCF7 breast; 41.5 µM in the test with COLO 205 colon; more than 100 µM in the test on MOLT-4 leukemia; more than 100 µM with LOX IMVI melanoma; more than 100 µM in the test with SNB-19 CNS; more than 74.1 µM in the test with SN12C renal. In addition, the total growth inhibition concentration (TGI) with NCI/ADR-RES ovarian was more than 58.5 µM; in the test with HS 578T breast, more than 47.9 µM; in the test on TK-10 renal, more than 100 µM; in the test with CAKI-1 renal, more than 100 µM.

As for `c1ccc(-c2oc(-c3ccccc3)c(CN3CCCCC3)c2CN2CCCCC2)cc1`, the GI50 in the test with MCF7 breast was 1.66 µM; with COLO 205 colon, 1.45 µM; with MOLT-4 leukemia it was 2.03 µM; with LOX IMVI melanoma, 3.19 µM; with SNB-19 CNS, 2.64 µM; in the test on SN12C renal, 2.84 µM. Moreover, the GI50 in the test on NCI/ADR-RES ovarian was 4.17 µM; with HS 578T breast, 3.14 µM; with TK-10 renal it was 4.58 µM; with CAKI-1 renal it was 4.81 µM. Also, the TGI was determined as 6.15 µM in the test with MCF7 breast; 5.01 µM in the test with COLO 205 colon; 5.58 µM in the test with MOLT-4 leukemia; 12.1 µM in the test on LOX IMVI melanoma; 8.72 µM in the test on SNB-19 CNS; 12.4 µM in the test on SN12C renal. In addition, the concentration for total growth inhibition (TGI) is 15.9 µM in the test on NCI/ADR-RES ovarian, 15.8 µM in the test on HS 578T breast, 19 µM in the test with TK-10 renal and 18.7 µM in the test on CAKI-1 renal.

`CC1CC2C3CCC4=CC(=O)C=CC4(C)C3(F)C(O)CC2(C)C1(O)C(=O)COP(=O)(O)O` (centres undefined): the GI50 with MCF7 breast, in the test with COLO 205 colon, in the test on MOLT-4 leukemia, in the test on LOX IMVI melanoma, in the test on SNB-19 CNS and in the test on SN12C renal was more than 500 µM throughout. Also, the GI50 with NCI/ADR-RES ovarian, with HS 578T breast, in the test on TK-10 renal and in the test with CAKI-1 renal was more than 500 µM each time. For the same compound, the concentration for total growth inhibition (TGI) with MCF7 breast, in the test on COLO 205 colon, in the test with MOLT-4 leukemia, in the test on LOX IMVI melanoma, in the test with SNB-19 CNS and with SN12C renal was more than 500 µM throughout. Moreover, the total growth inhibition concentration (TGI) in the test with NCI/ADR-RES ovarian, in the test with HS 578T breast, with TK-10 renal and with CAKI-1 renal was more than 500 µM throughout.

As for `CSc1ccc(C2=C(c3ccccc3)C(=O)OC2)cc1`, the GI50 was 0.81 µM in the test with MCF7 breast; 0.763 µM with COLO 205 colon; 0.174 µM in the test with MOLT-4 leukemia; 0.385 µM in the test with LOX IMVI melanoma; 0.804 µM in the test with SNB-19 CNS; 7.68 µM in the test on SN12C renal. Besides, the GI50 with NCI/ADR-RES ovarian is 0.35 µM; in the test with HS 578T breast it was 0.219 µM; in the test on TK-10 renal, 1.49 µM; with CAKI-1 renal, 0.409 µM. Besides, the TGI is more than 100 µM with COLO 205 colon; more than 100 µM in the test on MOLT-4 leukemia; 38.7 µM in the test on LOX IMVI melanoma; more than 100 µM in the test on SNB-19 CNS; more than 100 µM in the test with SN12C renal; more than 34.9 µM in the test with NCI/ADR-RES ovarian. The total growth inhibition concentration (TGI) in the test on HS 578T breast worked out at 1.22 µM; with TK-10 renal it was 18.4 µM; in the test with CAKI-1 renal, 10.1 µM.

On to `COc1ccc(-c2cc(=O)c3c(O)c(OC)c(OC)c(OC)c3o2)cc1OC`, for which the TGI in the test with MCF7 breast, in the test with COLO 205 colon, in the test with MOLT-4 leukemia, in the test with LOX IMVI melanoma, with SNB-19 CNS and in the test on SN12C renal was more than 100 µM throughout. For the same compound, the TGI with NCI/ADR-RES ovarian is more than 100 µM; with HS 578T breast it was 81.8 µM; with TK-10 renal it was more than 100 µM; in the test on CAKI-1 renal it was more than 100 µM.
